From patent publication US11339156B2, “3-(1H-pyrazol-4-yl)pyridine allosteric modulators of the M4 muscarinic acetylcholine receptor” (Merck Sharp & Dohme Corp., priority 2017, dated 2022) come the findings set out here.

Molecules are shown by their SMILES.

The target in this test is T1, human M4 muscarinic acetylcholine receptor (Homo sapiens, UniProt P08173).
T1 construct: expressed in transfected cells
T1 sequence (P08173 1-479): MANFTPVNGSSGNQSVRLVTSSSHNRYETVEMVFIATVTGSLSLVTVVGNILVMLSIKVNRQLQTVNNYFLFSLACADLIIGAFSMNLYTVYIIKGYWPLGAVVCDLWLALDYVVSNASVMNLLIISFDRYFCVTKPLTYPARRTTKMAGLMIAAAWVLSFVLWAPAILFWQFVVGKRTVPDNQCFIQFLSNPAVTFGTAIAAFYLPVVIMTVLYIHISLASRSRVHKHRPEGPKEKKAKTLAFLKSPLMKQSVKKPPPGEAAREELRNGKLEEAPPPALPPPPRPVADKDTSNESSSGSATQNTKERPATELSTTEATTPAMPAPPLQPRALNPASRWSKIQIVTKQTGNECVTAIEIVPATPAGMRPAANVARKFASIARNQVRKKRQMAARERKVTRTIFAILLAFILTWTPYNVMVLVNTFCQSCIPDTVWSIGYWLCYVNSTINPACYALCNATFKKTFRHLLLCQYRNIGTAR
As to the kind of experiment: human FLIPR-based M4 PAM assay (CHO-K1 cells with human M4 receptor and Gαqi5, calcium dye fluorescence). It counts as cell-based. The note with it: inflection point of 4 parameter logistic fit; acetylcholine added at 20% of maximum response; read-out: M4PAM IP. The method, then:
In a typical experiment the M4 muscarinic acetylcholine receptor modulating activity of the compounds of the present invention was determined in accordance with the following experimental method. CHO-K1 cells stably transfected with human M4 receptor and chimeric G-protein Gαqi5 (Coward P, et al., Analytical Biochemistry, 270:242-248 (1999)) are thawed from liquid N2 storage, resuspended in growth medium, plated in black, clear bottom 384 well plates, and incubated 16-20 hours at 37° C., 5% CO2. On the day of assay, growth medium is removed, the cells are washed 2 times with wash buffer, and cells are incubated in dye loading buffer at 37° C., 5% CO2 for ˜1 hour. Following dye loading the cell plates are placed in a FLIPR Tetra instrument and while monitoring dye fluorescence (excitation […]), 10 uL of test substance at increasing concentrations is added, and fluorescence values are recorded for 4 min. Next, 10 uL of acetylcholine is added (final concentration calculated so as to achieve 20% of the maximum acetycholine response), and the fluorescence reading is continued for 3.5 min. In some cases, a third addition of acetylcholine (final concentration calculated to achieve 70% of the maximal acetylcholine response) is performed. The resulting dose response curves are fit to a 4 parameter logistic equation and the final result is determined as the inflection point (IP) of the curve
CHO-K1 cells stably transfected with human M4 receptor and chimeric G-protein Gαqi5 are thawed from liquid N2 storage, resuspended in growth medium, plated in black, clear bottom 384 well plates, and incubated 16-20 hours at 37° C., 5% CO2.
On the day of assay, growth medium is removed, the cells are washed 2 times with wash buffer, and cells are incubated in dye loading buffer at 37° C., 5% CO2 for ˜1 h. Following dye loading the cell plates are placed in a FLIPR Tetra instrument and while monitoring dye fluorescence ([…]), 10 uL of test substance at increasing concentrations is added, and fluorescence values are recorded for 4 min. Next, 10 uL of acetylcholine is added (final concentration calculated so as to achieve 20% of the maximum acetycholine response), and the fluorescence reading is continued for 3.5 min. In some cases, a third addition of acetylcholine (final concentration calculated to achieve 70% of the maximal acetylcholine response) is performed.
Turning to `CC(C)(Cn1cc(-c2ccc(C#N)nc2-c2ccn3ccnc3c2)cn1)C(F)(F)F` [Example 44, 6-(imidazo[1,2-a]pyridin-7-yl)-5-(1-(3,3,3-trifluoro-2,2-dimethylpropyl)-1H-pyrazol-4-yl)picolinonitrile], the EC50 is 28.4 nM.

Regarding `N#Cc1ccc(-c2cnn(CC(F)(F)C3CC3)c2)c(-c2ccn3ccnc3c2)n1` [Example 1, 5-(1-(2-cyclopropyl-2,2-difluoroethyl)-1H-pyrazol-4-yl)-6-(imidazo[1,2-a]pyridin-7-yl)picolinonitrile], the EC50 was 58.6 nM.

In the case of `Cc1nc2cc(-c3nc(C#N)ccc3-c3cnn(CC(C)(F)C(C)(F)F)c3)ccc2n1C` (stereo not drawn) [Example 33, 6-(1,2-dimethyl-1H-benzimidazol-5-yl)-5-[1-(2,3,3-trifluoro-2-methylbutyl)-1H-pyrazol-4-yl]pyridine-2-carbonitrile], the EC50 was 51 nM.

With `Cc1cn2ccc(-c3nc(C#N)ccc3-c3cnn(CC(O)C(C)C)c3)cc2n1` (stereo not drawn) [Example 90, 5-[1-(2-hydroxy-3-methylbutyl)-1H-pyrazol-4-yl]-6-(2-methylimidazo[1,2-a]pyridin-7-yl)pyridine-2-carbonitrile], the EC50 turned out to be 92.2 nM.

Consider `Cc1ccc(-c2cnn(Cc3ccccc3)c2)c(-c2ccc3c(c2)C(=O)N(CC2CC2)C3)n1` [Example 11, 6-[3-(1-benzyl-1H-pyrazol-4-yl)-6-methylpyridin-2-yl]-2-(cyclopropylmethyl)-2,3-dihydro-1H-isoindol-1-one], for which the EC50 was 136 nM.

As for `C#Cc1ccc(-c2cnn(CC(C)(C)C)c2)c(-c2ccn3cc(C)nc3c2)n1` [Example 123, 7-(6-ethynyl-3-(1-neopentyl-1H-pyrazol-4-yl)pyridin-2-yl)-2-methylimidazo[1,2-a]pyridine], the EC50 was determined as 62.3 nM.

As to `CC(C)(C)Cn1cc(-c2ccc(C#N)nc2-c2ccc3cnnn3c2)cn1` [Example 84, 5-[1-(2,2-dimethylpropyl)-1H-pyrazol-4-yl]-6-[1,2,3]triazolo[1,5-a]pyridin-6-ylpyridine-2-carbonitrile], the EC50 amounted to 235 nM.

Take `Cc1ccc(-c2cnn(CC3CC3(C)C)c2)c(-c2ccn3ccnc3c2)n1` (stereo not drawn) [Example 109, 7-(3-{1-[(2,2-dimethylcyclopropyl)methyl]-1H-pyrazol-4-yl}-6-methylpyridin-2-yl)imidazo[1,2-a]pyridine]: the EC50 worked out at 75.9 nM.

As to `CN1Cc2ccc(-c3nc(C#N)ccc3-c3cnn(CC(C)(C)C(F)F)c3)cc2C1=O` [Example 97, 5-[1-(3,3-difluoro-2,2-dimethylpropyl)-1H-pyrazol-4-yl]-6-(2-methyl-3-oxo-2,3-dihydro-1H-isoindol-5-yl)pyridine-2-carbonitrile], the EC50 came to 45 nM.

On to `CC(C)(C)Cn1cc(-c2ccc(C#N)nc2-c2ccn3cc(C(F)(F)F)nc3c2)cn1` [Example 66, 5-[1-(2,2-dimethylpropyl)-1H-pyrazol-4-yl]-6-[2-(trifluoromethyl)imidazo [1,2-a]pyridin-7-yl]pyridine-2-carbonitrile], for which the EC50 is 54.4 nM.

In the case of `Cc1cn2ccc(-c3nc(C#N)ccc3-c3cnn(CC(C)C(F)(F)F)c3)cc2n1` (stereo not drawn) [Example 126, 6-(2-methylimidazo [1,2-a]pyridin-7-yl)-5-(1-(3,3,3-trifluoro-2-methylpropyl)-1H-pyrazol-4-yl)picolinonitrile], the EC50 turned out to be 39.1 nM.

Turning to `N#Cc1ccc(-c2cnn(CC(F)C3CC3)c2)c(-c2ccn3ccnc3c2)n1` (stereo not drawn) [Example 124, 5-(1-(2-cyclopropyl-2-fluoroethyl)-1H-pyrazol-4-yl)-6-(imidazo[1,2-a]pyridin-7-yl)picolinonitrile], the EC50 was 60.5 nM.

Regarding `COCc1cn2ccc(-c3nc(C#N)ccc3-c3cnn(CC(C)(C)C)c3)cc2n1` [Example 104, 5-[1-(2,2-dimethylpropyl)-1H-pyrazol-4-yl]-6-[2-(methoxymethyl)imidazo[1,2-a]pyridin-7-yl]pyridine-2-carbonitrile], the EC50 turned out to be 44.7 nM.

Take `CC(C)C(F)(F)Cn1cc(-c2ccc(C#N)nc2-c2ccn3ccnc3c2)cn1` [Example 21, 5-[1-(2,2-difluoro-3-methylbutyl)-1H-pyrazol-4-yl]-6-imidazo[1,2-a]pyridin-7-ylpyridine-2-carbonitrile]: the EC50 was determined as 30.7 nM.

Regarding `CC1(Cn2cc(-c3ccc(C#N)nc3-c3ccn4ccnc4c3)cn2)CC1(F)F` (stereo not drawn) [Example 134, 5-(1-((2,2-difluoro-1-methylcyclopropyl)methyl)-1H-pyrazol-4-yl)-6-(imidazo[1,2-a]pyridin-7-yl)picolinonitrile], the EC50 turned out to be 57.5 nM.

Turning to `Cc1cc(-c2cnn(CC3(C(F)(F)F)CC3)c2)c(-c2ccn3ccnc3c2)nc1C#N` [Example 138, 6-imidazo[1,2-a]pyridin-7-yl-3-methyl-5-(1-{[1-(trifluoromethyl)cyclopropyl]methyl}-1H-pyrazol-4-yl)pyridine-2-carbonitrile], the EC50 turned out to be 59.9 nM.

Take `CC(C)(C)Cn1cc(-c2ccc(C#N)nc2-c2ccn3nc(CO)nc3c2)cn1` [Example 73, 5-[1-(2,2-dimethylpropyl)-1H-pyrazol-4-yl]-6-[2-(hydroxymethyl)[1,2,4]triazolo[1,5-a]pyridin-7-yl]pyridine-2-carbonitrile]: the EC50 stood at 126 nM.

Turning to `Cc1cc(-c2cnn(CC3(C(F)(F)F)CC3)c2)c(-c2ccn3ccnc3c2)nc1C` [Example 139, 7-[5,6-dimethyl-3-(1-{[1-(trifluoromethyl)cyclopropyl]methyl}-1H-pyrazol-4-yl)pyridin-2-yl]imidazo[1,2-a]pyridine], the EC50 is 162 nM.

As to `N#Cc1ccc(-c2cnn(CC3(CF)CC3)c2)c(-c2ccn3ccnc3c2)n1` [Example 19, 5-(1-{[1-(fluoromethyl)cyclo-propyl]methyl}-1H-pyrazol-4-yl)-6-imidazo[1,2-a]pyridin-7-ylpyridine-2-carbonitrile], the EC50 stood at 49.9 nM.

Consider `FC(F)(F)C1(Cn2cc(-c3ccc(Cl)nc3-c3ccn4ccnc4c3)cn2)CC1` [Example 59, 7-[6-chloro-3-(1-{[1-(trifluoromethyl)cyclo-propyl]methyl}-1H-pyrazol-4-yl)pyridin-2-yl]imidazo[1,2-a]pyridine], for which the EC50 is 65.4 nM.

Take `CC(C)(C)Cn1ncc(-c2ccc(C#N)nc2-c2ccn3ccnc3c2)c1F` [Example 135, 5-[1-(2,2-dimethylpropyl)-5-fluoro-1H-pyrazol-4-yl]-6-imidazo[1,2-a]pyridin-7-ylpyridine-2-carbonitrile]: the EC50 came out at 36.5 nM.

For `CC(C)(C)Cn1cc(-c2ccc(OC(F)(F)F)nc2-c2ccn3ccnc3c2)cn1` [Example 100, 7-{3-[1-(2,2-dimethylpropyl)-1H-pyrazol-4-yl]-6-(trifluoromethoxy)pyridin-2-yl}imidazo [1,2-a]pyridine], the EC50 came out at 211 nM.

As to `Cc1ccc(-c2cnn(CC34CC(C3)C4)c2)c(-c2ccc3c(c2)C(=O)NC3)n1` [Example 8, 6-{3-[1-(bicyclo[1.1.1]pent-1-ylmethyl)-1H-pyrazol-4-yl]-6-methylpyridin-2-yl}-2,3-dihydro-1H-isoindol-1-one], the EC50 worked out at 26.6 nM.

With `Cc1nc2cc(-c3ncccc3-c3cnn(CC(C)(C)C(C)(F)F)c3)ccc2n1C` [Example 102, 5-{3-[1-(3,3-difluoro-2,2-dimethylbutyl)-1H-pyrazol-4-yl]pyridin-2-yl}-1,2-dimethyl-1H-benzimidazole], the EC50 worked out at 113 nM.

Turning to `CSc1cnc(-c2ccc3c(c2)C(=O)NC3)c(-c2cnn(CCC(C)C)c2)c1` [Example 137, 6-(3-(1-isopentyl-1H-pyrazol-4-yl)-5-(methylthio)pyridin-2-yl)isoindolin-1-one], the EC50 is 345 nM.

As for `CN1Cc2ccc(-c3nc(C#N)ccc3-c3cnn(CC4(C)CC4)c3)cc2C1=O` [Example 50, 5-{1-[(1-methylcyclopropyl)methyl]-1H-pyrazol-4-yl}-6-(2-methyl-3-oxo-2,3-dihydro-1H-isoindol-5-yl)pyridine-2-carbonitrile], the EC50 was 51.2 nM.

On to `Cc1ccc(-c2cnn(CC(C)(C)C(F)(F)F)c2)c(-c2ccn3ccnc3c2)n1` [Example 26], for which the EC50 turned out to be 25.5 nM.
